Converted amounts (≈) assume the structure as drawn. Like-named read-outs stand apart in the source and are kept apart here.
What was measured:
[1] = Protein binding, dog; format: in vitro ADME; conditions: dog (D)
[2] = Mouse bioavailability; format: in vivo
[3] = molecular target: Muscarinic M1 (Homo sapiens, UniProt P11229); experiment: Receptor selectivity (Cerep); format: binding
[4] = molecular target: CYP 1A2 (Homo sapiens, UniProt P05177); experiment: CYP inhibition; format: in vitro ADME
[5] = tested on: Detroit 562 HNSCC xenografts
Text: (§1) Anti-Tumor Efficacy Studies in Human Tumor Xenografts of Hormone-Independent Prostate Carcinoma, NSCL Carcinoma and HNSC Carcinoma
(§2) The human prostate carcinoma cell lines, CWR22 and PC3, and human head and neck squamous cell carcinoma cell line Detroit 562 were obtained from American Tissue Culture Collection (ATCC, Manassas, Va.). […] Human non-small cell lung cancer cell line HCC-827 and human breast cancer cell line BT474 were also purchased from the ATCC (Manassas, Va.) and cultured in RPMI (Cat #10-040, Mediatech Inc, Manassas, Va.) with 10% FBS. The rabbit phospho-FAK (Tyr397) (Cat #3283) and FAK antibodies (Cat #3285) were purchased from Cell Signaling Technology (Beverly, Mass.).
(§3) The mice were then monitored daily.
(§4) The tumor volumes were then calculated with the formula of 0.5236*L*W*(L+W)/2.

[6] = tested on: HCC-827 human NSCL carcinoma xenografts
Text: as §1, §2, §3, §4

[7] = tested on: PC-3 prostate tumor xenografts
Text: as §1, §2, §3, §4

[8] = molecular target: hERG (Homo sapiens, UniProt Q12809); experiment: hERG patch clamp; format: cell-based
[9] = molecular target: CYP 2C9 (Homo sapiens, UniProt P11712); experiment: CYP inhibition; format: in vitro ADME
[10] = molecular target: Muscarinic M2 (Homo sapiens, UniProt P08172); experiment: Receptor selectivity (Cerep); format: binding
[11] = molecular target: Muscarinic M3 (Homo sapiens, UniProt P20309); experiment: Receptor selectivity (Cerep); format: binding
[12] = molecular target: CYP 2D6 (Homo sapiens, UniProt P10635); experiment: CYP inhibition; format: in vitro ADME
[13] = tested on: CYP3A4; experiment: CYP3A4 induction in vitro; conditions: @ 10 μM
[14] = in vivo; conditions: both, rat, po
Experimental: Animals were dosed via oral gavage.
Assessment of toxicity was based on mortality, clinical observations, body weights, body weight changes, food consumption, ophthalmic examinations, and clinical and anatomic pathology. Blood samples were collected for toxicokinetic evaluations.

[15] = Rat bioavailability; conditions: in vivo, po
[16] = In vitro metabolic stability, human; format: in vitro ADME; conditions: human (H); read-out: In vitro metabolic stability t1/2
[17] = molecular target: CYP 2C19 (Homo sapiens, UniProt P33261); experiment: CYP inhibition; format: in vitro ADME
[18] = 10 days
[19] = tested on: Sup-M2 ALCL tumor xenografts; experiment: Anti-tumor efficacy, NPM-ALK positive Sup-M2 ALCL xenograft; conditions: for anti-tumor efficacy: 12 days
Experimental: Anti-Tumor Efficacy Studies—General Protocol
as §4
Anti-Tumor Efficacy in NPM-ALK Positive Sup-M2 and Karpas-299 ALCL Tumor Xenograft Models in Mice

[20] = molecular target: Neurokinin NK1 (Homo sapiens, UniProt P25103); experiment: Receptor selectivity (Cerep); format: binding
[21] = In vitro metabolic stability, mouse; format: in vitro ADME; conditions: mouse (M); read-out: In vitro metabolic stability t1/2
[22] = Caco-2 permeability; format: in vitro ADME; conditions: human
[23] = 4-week oral toxicity and toxicokinetic study of CEP-37440 in monkeys, 4-week recovery; format: in vivo, cynomolgus monkeys (Macaca fascicularis)
Experimental: Male and female cynomolgus monkeys (Macaca fascicularis) were assigned to 4 groups (3-treated and a vehicle control group) consisting of 5 monkeys/sex/group. Dose levels evaluated in this study were 0 (pH-adjusted reverse osmosis water), 2.5, 7.5, and 20 mg/kg/day. The dosing volume was 5 mL/kg. CEP-37440 was administered as the trihydrochloride dihydrate salt form. After completion of the dosing phase, 3 monkeys/sex/group were euthanized and 2 monkeys/sex/group continued on a treatment-free recovery phase for an additional 4 weeks.

[24] = molecular target: Histamine H2 (Homo sapiens, UniProt P25021); experiment: Receptor selectivity (Cerep); format: binding
[25] = Equilibrium solubility; format: physicochemical; conditions: thermodynamic from solid
[26] = Protein binding, human; format: in vitro ADME; conditions: human (H)
[27] = In vitro metabolic stability, rat; format: in vitro ADME; conditions: rat (R); read-out: In vitro metabolic stability t1/2
[28] = In vitro metabolic stability, monkey; format: in vitro ADME; conditions: monkey (Mo); read-out: In vitro metabolic stability t1/2
[29] = molecular target: DA transporter (Homo sapiens, UniProt Q01959); experiment: Receptor selectivity (Cerep); format: binding
[30] = bid or qd oral dosing at 10 and 30 mg/kg

Chain of Muscarinic M3 (P20309 whole entry): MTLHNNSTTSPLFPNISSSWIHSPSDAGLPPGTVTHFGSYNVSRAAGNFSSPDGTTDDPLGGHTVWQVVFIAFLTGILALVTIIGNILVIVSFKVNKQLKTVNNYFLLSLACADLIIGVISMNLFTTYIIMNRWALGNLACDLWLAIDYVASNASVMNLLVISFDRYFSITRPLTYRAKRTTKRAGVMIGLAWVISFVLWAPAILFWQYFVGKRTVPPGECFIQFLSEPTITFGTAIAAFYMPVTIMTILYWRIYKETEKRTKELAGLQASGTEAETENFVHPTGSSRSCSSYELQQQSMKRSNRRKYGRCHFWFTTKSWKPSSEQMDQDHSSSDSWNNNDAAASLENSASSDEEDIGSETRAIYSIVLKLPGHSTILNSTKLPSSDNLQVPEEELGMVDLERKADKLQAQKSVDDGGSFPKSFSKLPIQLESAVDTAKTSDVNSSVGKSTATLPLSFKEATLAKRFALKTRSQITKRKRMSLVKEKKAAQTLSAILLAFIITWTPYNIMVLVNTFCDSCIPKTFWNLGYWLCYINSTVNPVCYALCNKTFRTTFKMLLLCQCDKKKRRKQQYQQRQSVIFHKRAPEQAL
Chain of hERG (Q12809 whole entry): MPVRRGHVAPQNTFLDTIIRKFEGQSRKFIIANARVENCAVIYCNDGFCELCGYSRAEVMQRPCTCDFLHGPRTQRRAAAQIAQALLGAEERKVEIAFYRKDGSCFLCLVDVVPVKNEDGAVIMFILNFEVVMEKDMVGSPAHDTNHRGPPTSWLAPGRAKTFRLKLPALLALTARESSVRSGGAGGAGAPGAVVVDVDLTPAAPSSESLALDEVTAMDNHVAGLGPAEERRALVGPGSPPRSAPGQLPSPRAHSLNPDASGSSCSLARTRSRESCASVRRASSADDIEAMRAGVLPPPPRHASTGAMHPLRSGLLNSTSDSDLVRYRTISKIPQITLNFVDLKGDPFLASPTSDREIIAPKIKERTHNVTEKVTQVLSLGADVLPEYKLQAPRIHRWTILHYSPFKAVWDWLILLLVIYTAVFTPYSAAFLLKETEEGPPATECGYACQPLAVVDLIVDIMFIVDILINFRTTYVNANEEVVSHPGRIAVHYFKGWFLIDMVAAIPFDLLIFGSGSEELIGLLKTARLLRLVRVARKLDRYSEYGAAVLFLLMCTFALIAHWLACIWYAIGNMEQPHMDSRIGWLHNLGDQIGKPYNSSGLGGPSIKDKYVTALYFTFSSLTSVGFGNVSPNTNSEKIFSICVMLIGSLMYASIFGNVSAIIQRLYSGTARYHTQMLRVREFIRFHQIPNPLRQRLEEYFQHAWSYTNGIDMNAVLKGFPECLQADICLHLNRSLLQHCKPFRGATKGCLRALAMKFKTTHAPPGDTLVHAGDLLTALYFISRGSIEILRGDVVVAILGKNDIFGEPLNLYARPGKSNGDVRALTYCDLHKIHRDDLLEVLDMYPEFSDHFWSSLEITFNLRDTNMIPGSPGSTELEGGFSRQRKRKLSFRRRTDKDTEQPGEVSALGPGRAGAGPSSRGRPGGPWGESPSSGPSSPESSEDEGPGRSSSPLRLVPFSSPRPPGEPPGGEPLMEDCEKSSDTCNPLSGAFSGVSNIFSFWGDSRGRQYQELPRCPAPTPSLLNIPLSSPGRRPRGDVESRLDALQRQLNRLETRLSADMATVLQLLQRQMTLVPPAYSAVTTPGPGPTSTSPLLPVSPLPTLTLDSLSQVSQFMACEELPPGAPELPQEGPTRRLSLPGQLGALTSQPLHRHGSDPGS
Chain of CYP 2C19 (P33261 whole entry): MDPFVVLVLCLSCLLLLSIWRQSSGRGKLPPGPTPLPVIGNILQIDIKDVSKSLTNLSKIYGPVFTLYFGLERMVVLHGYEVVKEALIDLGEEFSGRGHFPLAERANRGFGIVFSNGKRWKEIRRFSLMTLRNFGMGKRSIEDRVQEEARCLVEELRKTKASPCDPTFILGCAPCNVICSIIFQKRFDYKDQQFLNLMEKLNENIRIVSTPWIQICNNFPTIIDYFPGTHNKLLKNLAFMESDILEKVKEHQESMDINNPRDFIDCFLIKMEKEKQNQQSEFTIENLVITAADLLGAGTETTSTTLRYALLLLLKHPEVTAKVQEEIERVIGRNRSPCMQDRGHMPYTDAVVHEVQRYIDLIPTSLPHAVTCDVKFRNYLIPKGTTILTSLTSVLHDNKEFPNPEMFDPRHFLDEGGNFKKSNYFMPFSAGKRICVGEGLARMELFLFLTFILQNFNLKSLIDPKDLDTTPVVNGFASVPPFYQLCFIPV
Chain of CYP 1A2 (P05177 whole entry): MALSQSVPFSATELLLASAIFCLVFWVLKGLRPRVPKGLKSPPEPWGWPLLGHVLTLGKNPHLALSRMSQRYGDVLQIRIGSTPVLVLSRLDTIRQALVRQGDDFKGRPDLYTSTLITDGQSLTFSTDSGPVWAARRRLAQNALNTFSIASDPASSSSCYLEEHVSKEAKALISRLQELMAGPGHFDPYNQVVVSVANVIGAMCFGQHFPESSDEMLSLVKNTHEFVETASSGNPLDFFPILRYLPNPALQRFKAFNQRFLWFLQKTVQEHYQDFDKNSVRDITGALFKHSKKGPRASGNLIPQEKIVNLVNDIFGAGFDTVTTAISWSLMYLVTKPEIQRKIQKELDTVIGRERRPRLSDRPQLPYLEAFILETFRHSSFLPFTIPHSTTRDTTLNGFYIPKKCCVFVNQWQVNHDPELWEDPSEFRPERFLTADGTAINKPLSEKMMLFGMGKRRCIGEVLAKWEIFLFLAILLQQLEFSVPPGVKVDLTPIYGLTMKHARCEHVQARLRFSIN
Chain of Muscarinic M1 (P11229 whole entry): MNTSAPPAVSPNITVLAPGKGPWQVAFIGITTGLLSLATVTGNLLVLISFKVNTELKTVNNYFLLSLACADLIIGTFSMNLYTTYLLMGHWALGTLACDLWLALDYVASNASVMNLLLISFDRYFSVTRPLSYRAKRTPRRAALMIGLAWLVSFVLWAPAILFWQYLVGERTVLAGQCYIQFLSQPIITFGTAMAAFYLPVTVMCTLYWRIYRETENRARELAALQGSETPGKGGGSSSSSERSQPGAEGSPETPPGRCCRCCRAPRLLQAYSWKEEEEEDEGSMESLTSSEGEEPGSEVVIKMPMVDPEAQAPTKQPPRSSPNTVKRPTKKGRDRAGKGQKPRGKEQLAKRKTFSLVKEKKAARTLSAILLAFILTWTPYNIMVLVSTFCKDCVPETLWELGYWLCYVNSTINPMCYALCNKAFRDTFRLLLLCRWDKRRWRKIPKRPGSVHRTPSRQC
Chain of CYP 2D6 (P10635 whole entry): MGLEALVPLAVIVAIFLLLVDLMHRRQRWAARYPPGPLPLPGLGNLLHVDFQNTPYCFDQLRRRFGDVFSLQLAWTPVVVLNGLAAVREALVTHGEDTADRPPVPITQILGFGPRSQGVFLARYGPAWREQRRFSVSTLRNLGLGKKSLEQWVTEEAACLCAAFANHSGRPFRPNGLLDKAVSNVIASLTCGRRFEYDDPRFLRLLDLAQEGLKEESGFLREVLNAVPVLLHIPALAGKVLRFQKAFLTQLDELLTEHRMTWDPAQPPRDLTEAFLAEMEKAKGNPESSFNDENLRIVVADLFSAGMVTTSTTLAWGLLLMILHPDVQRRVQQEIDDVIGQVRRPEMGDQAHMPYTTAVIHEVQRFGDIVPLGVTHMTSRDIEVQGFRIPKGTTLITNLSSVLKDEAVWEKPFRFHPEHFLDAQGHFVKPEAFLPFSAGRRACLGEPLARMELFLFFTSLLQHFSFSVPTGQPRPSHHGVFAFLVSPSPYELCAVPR
Chain of Histamine H2 (P25021 whole entry): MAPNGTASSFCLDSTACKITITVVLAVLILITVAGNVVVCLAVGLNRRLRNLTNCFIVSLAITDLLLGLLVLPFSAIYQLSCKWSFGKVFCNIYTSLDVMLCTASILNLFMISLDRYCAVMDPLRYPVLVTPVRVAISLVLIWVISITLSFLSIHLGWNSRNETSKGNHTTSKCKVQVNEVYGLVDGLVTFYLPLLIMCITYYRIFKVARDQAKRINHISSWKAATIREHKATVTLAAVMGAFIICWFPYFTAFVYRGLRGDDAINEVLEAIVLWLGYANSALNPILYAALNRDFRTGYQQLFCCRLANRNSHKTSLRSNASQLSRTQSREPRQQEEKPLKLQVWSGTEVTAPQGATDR
Chain of Neurokinin NK1 (P25103 whole entry): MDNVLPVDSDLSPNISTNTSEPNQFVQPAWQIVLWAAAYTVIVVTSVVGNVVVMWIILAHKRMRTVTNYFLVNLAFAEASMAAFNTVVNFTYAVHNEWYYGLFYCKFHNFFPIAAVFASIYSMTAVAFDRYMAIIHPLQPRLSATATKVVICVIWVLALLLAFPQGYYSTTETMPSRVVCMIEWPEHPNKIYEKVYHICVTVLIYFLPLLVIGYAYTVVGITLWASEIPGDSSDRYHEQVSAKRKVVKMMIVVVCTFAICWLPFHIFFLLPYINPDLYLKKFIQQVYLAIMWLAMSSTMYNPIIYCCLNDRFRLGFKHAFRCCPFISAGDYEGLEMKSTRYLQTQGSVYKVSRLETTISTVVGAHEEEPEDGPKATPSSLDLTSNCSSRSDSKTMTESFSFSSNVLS
Chain of Muscarinic M2 (P08172 whole entry): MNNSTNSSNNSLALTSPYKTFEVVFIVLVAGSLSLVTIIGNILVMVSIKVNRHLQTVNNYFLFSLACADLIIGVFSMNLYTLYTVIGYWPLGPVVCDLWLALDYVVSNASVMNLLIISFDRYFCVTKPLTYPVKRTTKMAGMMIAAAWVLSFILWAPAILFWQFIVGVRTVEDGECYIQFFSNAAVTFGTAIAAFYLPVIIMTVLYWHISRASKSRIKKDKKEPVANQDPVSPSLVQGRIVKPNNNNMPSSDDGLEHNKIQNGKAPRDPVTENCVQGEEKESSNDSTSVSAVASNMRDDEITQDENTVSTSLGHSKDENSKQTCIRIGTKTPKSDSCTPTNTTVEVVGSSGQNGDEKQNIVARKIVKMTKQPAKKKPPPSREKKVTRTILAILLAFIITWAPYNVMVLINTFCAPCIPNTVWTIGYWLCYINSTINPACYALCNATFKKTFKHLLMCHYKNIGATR

## CNC(=O)c1ccccc1Nc1nc(Nc2ccc3c(c2OC)CCC[C@H](N2CCN(CCO)CC2)C3)ncc1Cl [CEP-37440, 2-[[5-chloro-2-[[(6S)-6-[4-(2-hydroxyethyl)piperazin-1-yl]-1-methoxy-6,7,8,9-tetrahydro-5H-benzo[7]annulen-2-yl]amino]pyrimidin-4-yl]amino]-N-methyl-benzamide]
[1]
  Protein binding: 94 % bound
[2]; CD-1 mouse, CEP-37440 as amorphous HCl salt
  Mouse bioavailability: 102%
[2]; Scid, mouse, in vivo, po
  bioavailability: 99%
[3]
  Ki: 2.46 µM
[4]
  IC50: > 30 µM
[5]; 30 mg/kg bid, 28-day period
  incidence of partial tumor regressions: 20%
[5]; 55 mg/kg bid, 28-day period
  incidence of partial tumor regressions: 30%
[5]; 28-day period
  anti-tumor efficacy: tumor stasis
[5]; all dosing regimens
  tolerability: well-tolerated with no morbidity or mortality observed
[5]; no effect on total FAK expression levels
  tumor pharmacodynamic inhibition of FAK activation: clear tumor pharmacodynamic effect for inhibition of FAK activation
[6]; 30 mg/kg bid, day 28
  TGI: 60%
[6]; 55 mg/kg bid, day 28
  TGI: 80%
  incidence of complete tumor regressions: 30%
  incidence of partial tumor regressions: 30%
  incidence of tumor regressions: 60%
[6]; mouse, in vivo
  tolerability, body weight: well tolerated, with no overt toxicity or significant body weight loss observed
[7]; 36 day period, oral
  incidence of complete tumor regressions: 10%
[7]; 36 day period, oral, equivalent doses of both compounds
  tumor growth inhibition (TGI): 55%
[7]; all dosing regimens
  tolerability, body weight: well tolerated with no overt toxicity or significant body weight loss observed
[8]
  IC50: > 10 µM
[9]
  IC50: > 30 µM
[10]
  Ki: 2 µM
[11]
  Ki: 3.5 µM
[12]
  IC50: > 30 µM
[13]
  CYP3A4 induction in vitro: 1.5 @ 10 μM fold
[14]
  NOAEL at 4 weeks: 10 mg/kg/day
[15]
  bioavailability: > 42%
[16]
  half-life: > 40 min
[17]
  IC50: > 20 µM
[18]; daily gavage
  doses with drug-related adverse findings (body weight, bone marrow, spleen, thymus, lymph node, lung): ≥ 30 mg/kg/day
[18]; rat, in vivo
  dose well tolerated: 10 mg/kg/day
[19]; 10 mg/kg or lower, bid, po
  anti-tumor efficacy: No significant anti-tumor activity
[19]; 30 mg/kg bid po
  anti-tumor efficacy: complete or near complete tumor regression
[19]; 30 mg/kg, qd, po
  anti-tumor efficacy: partial tumor regression
[19]; 55 mg/kg qd po
  anti-tumor efficacy: complete or near complete tumor regression
[19]; all dosing regimens
  tolerability, body weight: well tolerated with no overt toxicity and no significant compound-related body weight loss
[19]; [30]
  plasma level at 2 h post final dosing versus 2 h post single oral dose: 2-3 fold
  tumor level at 2 h post final dosing versus 2 h post single oral dose: more than 10 fold
[20]
  Ki: 1.2 µM
[21]
  half-life: > 40 min
[22]
  Papp: 1.26 ×10⁻⁶ cm/s
[23]; 2.5, 7.5, 20 mg/kg/day, 4 weeks
  survival: All animals survived until their scheduled sacrifice
[23]; 2.5, 7.5, 20.0 mg/kg/day, Days 3 and 27 of dosing, Day 28 of recovery
  ECG: No drug-related changes in PR interval, QRS duration, QT interval, corrected QT (QTc) interval, RR interval, or heart rate
[23]; dosing or recovery phase
  body weight: no drug-related effects on body weight or body weight gain
[23]; oral, 28 consecutive days
  doses well tolerated, no drug-related effects: up to 20 mg/kg/day
[23]; up to 20.0 mg/kg/day
  clinical pathology test results: had no effect on clinical pathology test results
[23]; up to 20 mg/kg/day, 28 days
  pulmonary edema: no evidence whatsoever of pulmonary edema
[24]
  Ki: 5.2 µM
[25]; pH 2, simulated gastric fluid, read-out: Equilibrium solubility at pH 2
  solubility thermodynamic: > 1000 µg/mL
[25]; pH 7.4, aqueous buffer, read-out: Equilibrium solubility at pH 7.4
  solubility thermodynamic: 280 µg/mL (≈ 483 µM)
[26]
  Protein binding: 95 % bound
[27]
  half-life: > 40 min
[28]
  half-life: 21 min
[29]
  Ki: 2.1 µM
